Source: US4534979A, “Polyene compounds useful in the treatment of psoriasis and allergic responses” (USV Pharmaceutical Corp., priority 1984, dated 1985)
Like-named read-outs stand apart in the source and are kept apart here. Each block holds one compound with its values, some of them ahead of it.

Tests used:
[1] = tested on: mouse epidermal cell culture; assay: mouse epidermal cell culture, cell proliferation by uptake of tritiated thymidine into DNA; assay type: cell-based; settings: for percentage uptake in comparison to the standards (TRA, CRA): all time points; for activity at 12 µg/mL: Mus musculus, read-out: percentage uptake of tritiated thymidine relative to vehicle control (100%)
[2] = tested on: mouse epidermal cell culture; assay: mouse epidermal cell culture, anti-differentiation activity (Kreyberg staining and nuclei enumeration); assay type: cell-based; set-up: key to culture staining by the Kreyberg technique, score (maximum differentiation 10): Kreyberg staining score; 10 = maximum differentiation; key to nuclei enumeration, score (maximum differentiation 0): nuclei enumeration score; 0 = maximum differentiation; settings: 12 ug/ml; for culture staining by the Kreyberg technique, score (maximum differentiation 10): first number of the ratio; for nuclei enumeration, score (maximum differentiation 0): second number of the ratio
Excerpt: (§1) Compounds of this invention are active against various skin disorders, such as acne and psoriasis, when tested according to models considered to be predictive of the clinical condition in humans. The models used were the rhino mouse procedure (Kligman, et al., J. Investigative Dermatology 73, 354 (1979)), the rabbit comedolytic procedure (Mills O. H., Kligman A. M.: Assay of Comedolytic Agents in the Rabbit Ear, Animal Models in Dermatology; Relevance to Human Dermatopharmacology and Dermatotoxicology,edited by H. I. Maibach, New York Churchill-Livingston, 1975, pp. 176-183) and the mouse epidermal cell culture procedure (Marcelo, et al., J. Cell Biol., 79, 356 (1978). Testing was done comparatively against standard retinoids known to be effective in these disorders and against a known α-methyl retinoid (2,7-dimethyl-9-(2,6,6-trimethyl-1-cyclohexene-1-yl)-2,3,6,8-nonatetraenoic acid, referred to as DTCNA).
The ratios in the table represent scoring of two measured parameters, culture staining by the Kreyberg technique (maximum differentiation 10) and nuclei enumeration (maximum differentiation 0). Thus the highest possible anti-differentiative activity would be given by the ratio 0/10.

[3] = tested on: 5-Lipoxygenese pathway (LOX, Rat PMN); assay: lipoxygenase pathway inhibition assay (14C-arachidonic acid oxidation by neutrophil homogenate); assay type: biochemical; settings: concentration required for inhibition of the 5-Lipoxygenese pathway; read-out: LOX, Rat PMN (I50)
rabbit ear comedones = assay: rabbit comedolytic procedure (rabbit ear model); assay type: in vivo; settings: concentration of 0.05%, compared with TRA
Excerpt: as §1
(§2) Activity equal to or greater than the standards and the known compound was shown by 2,5,9-trimethyl-11-(2,6,6-trimethyl-1-cyclohexene-1-yl)-2,4,6,8,10-undecapentaenoic acid (TTCUA).

[4] = tested on: rhino mouse utriculi (pseudocomedones); assay: rhino mouse procedure; assay type: in vivo; settings: rhino mouse model, concentration 0.05%
Excerpt: as §1, §2

[5] = 72 h, 12 ug/ml, day 3 of culture exposure to drug
[6] = 120 h, 12 ug/ml, day 5 of culture exposure to drug
[7] = 240 h, 12 ug/ml, day 10 of culture exposure to drug

SMILES: CC(C=CC1=C(C)CCCC1(C)C)=CC=CC=C(C)C(=O)O [DTCNA]
percentage uptake in comparison to the standards (TRA, CRA) ([1]; 12 ug/ml): about the same
activity at 12 µg/mL [1, 5]: 53%
activity at 12 µg/mL [1, 6]: 61%
activity at 12 µg/mL [1, 7]: 60%
culture staining by the Kreyberg technique, score (maximum differentiation 10) ([2]; day 3): 3
nuclei enumeration, score (maximum differentiation 0) ([2]; day 3): 6
culture staining by the Kreyberg technique, score (maximum differentiation 10) ([2]; day 6): 2
nuclei enumeration, score (maximum differentiation 0) ([2]; day 6): 6
culture staining by the Kreyberg technique, score (maximum differentiation 10) ([2]; day 10): 2
nuclei enumeration, score (maximum differentiation 0) ([2]; day 10): 5

IC50 [3]: 2 µM
SMILES: CC(/C=C/c1ccc(OCc2ccccc2)cc1)=C\C=C\C(=O)O [Example 6, 7-(4-Benzyloxyphenyl)-5-Methyl-Hepta-2,4,6-Trienoic Acid]

SMILES: CC1=C(/C=C/C(C)=C/C=C/C(C)=C\C(=O)O)C(C)(C)CCC1 [CRA]
percentage uptake of tritiated thymidine relative to vehicle control (100%) ([1]; 12 ug/ml, day 3 of culture exposure to drug): 47%
percentage uptake of tritiated thymidine relative to vehicle control (100%) ([1]; 12 ug/ml, day 5 of culture exposure to drug): 75%
percentage uptake of tritiated thymidine relative to vehicle control (100%) ([1]; 12 ug/ml, day 10 of culture exposure to drug): 64%
culture staining by the Kreyberg technique, score (maximum differentiation 10) ([2]; day 3): 2
nuclei enumeration, score (maximum differentiation 0) ([2]; day 3): 7
culture staining by the Kreyberg technique, score (maximum differentiation 10) ([2]; day 6): 2
nuclei enumeration, score (maximum differentiation 0) ([2]; day 6): 7
culture staining by the Kreyberg technique, score (maximum differentiation 10) ([2]; day 10): 2
nuclei enumeration, score (maximum differentiation 0) ([2]; day 10): 6.5

IC50 [3]: 10 µM
SMILES: COc1cc(C)c(/C=C/C(C)=C/C=C/C(=O)O)c(C)c1C [Example 8, 7-(4-Methoxy-2,3,6-Trimethylphenyl)-5-Methyl-Hepta-2,4,6-Trienoic Acid]

IC50 [3]: 13 µM
SMILES: CC\C(=C/C=C(C)/C=C/C=C(C)/C=C/C1=C(C)CCCC1(C)C)C(=O)O [Example 3B, 5,9-Dimethyl-2-Ethyl-11-(2,6,6-Trimethyl-1-Cyclohexen-1-yl)-2,4,6,8,10-Undecapentaenoic Acid]

SMILES: CC1=C(/C=C/C(C)=C/C=C/C(C)=C/C(=O)O)C(C)(C)CCC1 [TRA, trans retinoic acid]
activity at 12 µg/mL ([1]; 72 h): 77%
activity at 12 µg/mL ([1]; 120 h): 53%
activity at 12 µg/mL ([1]; 240 h): 36%
culture staining by the Kreyberg technique, score (maximum differentiation 10) ([2]; day 3): 3
nuclei enumeration, score (maximum differentiation 0) ([2]; day 3): 5
culture staining by the Kreyberg technique, score (maximum differentiation 10) ([2]; day 6): 3
nuclei enumeration, score (maximum differentiation 0) ([2]; day 6): 5
culture staining by the Kreyberg technique, score (maximum differentiation 10) ([2]; day 10): 2
nuclei enumeration, score (maximum differentiation 0) ([2]; day 10): 6
IC50 [3]: 90 µM

SMILES: CC1=C(/C=C/C(C)=C/C=C/C(C)=C/C=C(\C)C(=O)O)C(C)(C)CCC1 [TTCUA, 2,5,9-trimethyl-11-(2,6,6-trimethyl-1-cyclohexene-1-yl)-2,4,6,8,10-undecapentaenoic acid]
percentage uptake in comparison to the standards (TRA, CRA) ([1]; 12 ug/ml): up to five fold less
activity at 12 µg/mL [1, 5]: 31%
activity at 12 µg/mL [1, 6]: 15%
activity at 12 µg/mL [1, 7]: 21%
ability to reduce comedone size (rabbit ear comedones): equal to trans retinoic acid (TRA)
culture staining by the Kreyberg technique, score (maximum differentiation 10) ([2]; day 3): 2
nuclei enumeration, score (maximum differentiation 0) ([2]; day 3): 6
culture staining by the Kreyberg technique, score (maximum differentiation 10) ([2]; day 6): 0.5
nuclei enumeration, score (maximum differentiation 0) ([2]; day 6): 8.5
culture staining by the Kreyberg technique, score (maximum differentiation 10) ([2]; day 10): 1
nuclei enumeration, score (maximum differentiation 0) ([2]; day 10): 7.5
anti-differentiation activity ([2]; mouse epidermal cell culture): more active in both parameters than the two standards and high
epidermal hyperplasia of the skin [4]: moderate epidermal hyperplasia
ability to reduce the amount of horny impaction in the utriculi ([4]; compared with TRA): equal to TRA
ability to reduce the size of utriculi (pseudocomedones) ([4]; compared with TRA): equal to TRA
skin wrinkling ([4]; versus untreated control animals): significantly less wrinkling
